{"source": "patent US8809393B2", "about": "“Injectable preparations of diclofenac and its pharmaceutically acceptable salts” (Troikaa Pharmaceuticals Ltd, priority 2005, dated 2014)", "origin": "cited, not measured here", "tested_on": "erythrocytes", "settings": "aqueous solution of 2% propylene glycol iso-osmotic with serum, in 45 min"}
{"smiles": "CC(O)CO", "note": "(stereo not shown) [propylene glycol]", "values": [{"measurement": "haemolysis of erythrocytes", "result": 100, "unit": "%"}]}
